Experimental findings from patent publication US4797284A, “Transdermal drug delivery system” (Merck & Co., Inc., priority 1986, dated 1989) are described below.

What all share (type): physicochemical
Data set [1] can be described thus: crystallization of dissolved drug in unitary solid reservoir of dissolved and undissolved drug. An excerpt: Generally, the structure of a transdermal bandage or device consists of (a) a transdermal delivery system comprising an impermeable backing, a drug-containing reservoir, a rate-controlling membrane on the side to be ultimately proximate to the skin of the patient and (b) a means of attaching the system to the dermal surface. In the known systems, the reservoir, the source of supply for the drug, whether a single solid unit, a walled unit or a unit employing drug containing micro-capsules within the reservoir structure, contains the drug partly in particulate form and partly in solution i.e., contains drug in excess of its saturation solubility. During use, the drug in solution migrates to the permeable membrane surface, passes through the membrane and onto the skin for absorption. As the dissolved drug passes through the membrane some of the undissolved drug dissolves and there is, until the supply of undissolved drug is exhausted, a mixture of both dissolved and undissolved drug in the reservoir. The presence of dissolved and undissolved drug is considered necessary to provide for the near zero order rate of delivery, zero order being the rate of delivery which is constant or independent of time. […]

A short description of data set [2]: diffusion coefficient of drug in the membrane (Dm), side-by-side diffusion cell. Conditions: 7.5 percent ethylene vinyl acetate copolymer film (PE-75). As for the experimental part: The diffusion coefficient of drug in the membrane, Dm or Dm', is determined by mounting the membrane between two chambers of a side-by-sidediffusion cell. A determined amount of drug in solution (donor phase) is placed in one chamber and a receptor solvent in the other, into which the drug diffuses and in which it will remain substantially below its saturation solubility (receptor phase). The cells are stirred while maintained in a constant temperature bath, preferably at 32° C. The receptor phase is sampled from time to time and assayed for drug, and steady state flux through the membrane calculated. Km, the partition coefficient between the donor solution and membrane, is determined by equilibrating a known volume of donor solution at 32° C., then assaying the solution for change in drug concentration to determine partitioning between membrane and donor. The diffusion coefficient of the drug in the membrane is calculated from the steady state Fick's law equation, which for semi-permeable membrane is
Initially, Dr was determined for timolol in a commercially available acrylate film-forming material, a 30 percent weight/weight (w/w) vinyl acetate-acrylate copolymer in 53:11:36 ethyl acetate:toluene:ethanol solvent (Gelva® RA-737 multipolymer solution obtained from Monsanto) in the manner previously described. […]

Data set [3] in a line: diffusion coefficient of drug in the reservoir (Dr), release from drug-bearing film into stirred receptor solution. To be noted: 30 percent w/w vinyl acetate-acrylate copolymer in 53:11:36 ethyl acetate:toluene:ethanol (Gelva RA-737); timolol free base. The protocol:
When a solid reservoir is employed, the diffusion coefficient of the drug in the reservoir, Dr, is determined by first dissolving the drug to be used in a solution of matrix-forming polymer at a concentration below the saturation solubility of the drug in the polymer solution, and then coating the solution and allowing the coating to dry or curing the coating to form a drug bearing film. The coating may be made on a releasable surface so that a free film is employed in the diffusion coefficient determination or may be made on an impermeable backing material in which case the film with backing is employed in making the determination. […] The receptor solution, which is maintained at a constant temperature, preferably 32° C., is sampled at appropriate intervals and quantitative determination of drug concentration made by HPLC (high pressure liquid chromatography) with UV detection or by other suitable means based on the physical-chemical characteristics of the drug. The value for Dr is then determined by a nonlinear regression fit of observed data to either the earlier time or the late time approximation as is appropriate for drug release from a continuous matrix containing only dissolved drug as discussed in Baker et al, "Controlled Release: Mechanisms and Rates" in Advances in Experimental Medicine and Biology, Vol 47, page 41, Eds. Tanquary et al, Plenum Press, N.Y., 1974. […]

As to `CC(C)(C)NC[C@H](O)COc1nsnc1N1CCOCC1` [timolol], the “crystallization of dissolved drug after fabrication” value in data set [1] is on record as “the dissolved drug often slowly crystallizes subsequent to fabrication”. Besides, the “Dm (diffusion coefficient of drug in membrane)” value in data set [2] was 2.85×10^-6 cm^2 /hour. Besides, in data set [3], the “Dr (diffusion coefficient of drug in reservoir)” value is listed as 1.58×10^-6 cm^2 /hour.
